Measurements reported in article PMC5951806, “Rapid labelling and covalent inhibition of intracellular native proteins using ligand-directed N-acyl-N-alkyl sulfonamide” (Nature Communications, 2018).
Values joined by “and” are separate entries in the source; they are usually repeats but may differ in a detail not shown here. Equal values may be shown once.

Columns and labels:
Assay in all cases: TMT LC-MSMS of 11-labelled proteins
Type in all cases: cell-based
[1] = molecular target: ATP synthase subunit alpha, mitochondrial (ATP5A1) (Homo sapiens, UniProt P25705)
Description: (§1) The labelled proteins were enriched by immunoprecipitation with an anti-fluorescein antibody and tryptically digested in gel. Digested peptides were modified with Light- (L-), Medium- (M-), or Heavy- (H-) TMT reagent for samples treated with 11, 11 with PU-H71 (as competitive condition), or DMSO (vehicle), respectively, and mixed in a 1:1:1 ratio for LC-MSMS analysis. We performed three experimental replicates, in which proteins detected and quantified at least twice were selected as identified proteins. According to the related approach of Cravatt et al[44], the proteins having L/H (11/DMSO) ratios >5 were defined as 11-labelled proteins. […] On the basis of these criteria, we identified 6 proteins that react with 11, including three ligand-specific targets (Hsp90α (HSP90AA1), Hsp90β (HSP90AB1), and Grp94 (HSP90B1)) and three off-targets (Trifunctional enzyme subunit α (HADHA), Tubulin-α (TUBA1B), and ADP/ATP translocase 3 (SLC25A6)) (Fig. 5d, e and Supplementary Data 1). […] Grp94, a HSP90 isomer, was previously reported to be a PU-H71 specific target. TRAP-1, another Hsp90 isomer that can bind PU-H71, on the other hand, was not identified as 11-target by our criteria.
(§2) SKBR3 human breast cancer cells (2.0 × 10^6 cells) were seeded on a 10 cm dish and cultured for 3 days in McCoy’s 5A in a 5% CO2 humidified chamber at 37 °C. […] As competitive experiments, the labelling was conducted in the presence of PU-H71 (10 µM). After labelling, the cells were washed twice with PBS, and lysed with RIPA buffer. […] The supernatant was mixed with chilled acetone and incubated overnight at −80 °C. The protein precipitates were solubilized by sonication in 1 mL of RIPA buffer containing 1% SDS, and then 10-fold diluted with RIPA buffer to reduce SDS concentration to c.a. 0.1%. The protein solution (containing 1 mg of protein) was mixed with Protein G Sepharose 4 Fast Flow (GE Healthcare) and rotated at 4 °C for 1 h. After removal of the beads, the remaining supernatant was mixed with anti-fluorescein antibody (Abcam, ab19491, 7:10000) and rotated at 4 °C for 1 h, followed by addition of fresh Protein G Sepharose 4 Fast Flow and further incubation at 4 °C for 4 h. The beads were washed five times with RIPA buffer and once with PBS. Proteins were eluted from the beads by addition of 2 × sample buffer containing 100 mM DTT and boiling at 95 °C for 5 min. The samples were subjected to a 7.5% SDS–PAGE gel (Mini-PROTEAN TGX Gels, BioRad), and electrophoresed as the migration distance of dye front is about 10 mm. Each lane was excised (height, 10 mm), and treated with a 47.5% methanol / 47.5% pure water / 5% acetic acid for 20 min, a 50% methanol / 50% pure water for 10 min, and in pure water for 10 min. The gel pieces were dehydrated with 100% acetonitrile, and then swelled with 200 μL of 100 mM TEAB (triethylamine bicarbonate) buffer containing 10 mM DTT and heated at 56 °C for 30 min. The solutions were replaced with 200 µL of 100 mM TEAB buffer containing 55 mM iodoacetamide and incubated for 45 min in the dark. The gel pieces were washed with 100 mM TEAB buffer and dehydrated in acetonitrile. This step was repeated once. The gels were reswelled in 100 mM TEAB buffer containing 10 ng/μL Sequencing Grade Trypsin (Promega) and incubated overnight at 37 °C. To the gels, 50 μL of an extraction solution (50% acetonitrile, 0.1% TFA) was added. After 10 min incubation, the supernatants were collected to new tubes, and this process was repeated twice. Extracted peptides were dried in vacuo and reconstituted with 25 μL of 100 mM TEAB buffer.

[2] = molecular target: Heat shock cognate 71 kDa protein (HSPA8) (Homo sapiens, UniProt P11142)
Description: as §1, §2

[3] = molecular target: Isoform 2 of Heat shock protein HSP 90-alpha (HSP90AA1) (Homo sapiens, UniProt P07900)
Description: as §1, §2

[4] = molecular target: L-lactate dehydrogenase B chain (LDHB) (Homo sapiens, UniProt P07195)
Description: as §1, §2

Prohibitin-2 (PHB2) = Prohibitin-2 (PHB2) (Homo sapiens, UniProt Q99623); details: SKBR3 cells; for Abundance Ratio: (11) / (DMSO): 11 0.5 µM 3 h vs DMSO; for Abundance Ratio: (11) / (11 with PU-H71): 11 0.5 µM 3 h vs with PU-H71 10 µM
Description: as §1, §2

[5] = molecular target: glyceraldehyde-3-phosphate dehydrogenase (GAPDH) (Homo sapiens, UniProt P04406)
Description: as §1, §2

[6] = sheet Exp1, SKBR3 cells, 11 0.5 µM 3 h vs DMSO
[7] = sheet Exp1, SKBR3 cells, 11 0.5 µM 3 h vs with PU-H71 10 µM
[8] = sheet Merged, SKBR3 cells, 11 0.5 µM 3 h vs DMSO
[9] = sheet Merged, SKBR3 cells, 11 0.5 µM 3 h vs with PU-H71 10 µM

Sequence of L-lactate dehydrogenase B chain (LDHB) (P07195 whole entry): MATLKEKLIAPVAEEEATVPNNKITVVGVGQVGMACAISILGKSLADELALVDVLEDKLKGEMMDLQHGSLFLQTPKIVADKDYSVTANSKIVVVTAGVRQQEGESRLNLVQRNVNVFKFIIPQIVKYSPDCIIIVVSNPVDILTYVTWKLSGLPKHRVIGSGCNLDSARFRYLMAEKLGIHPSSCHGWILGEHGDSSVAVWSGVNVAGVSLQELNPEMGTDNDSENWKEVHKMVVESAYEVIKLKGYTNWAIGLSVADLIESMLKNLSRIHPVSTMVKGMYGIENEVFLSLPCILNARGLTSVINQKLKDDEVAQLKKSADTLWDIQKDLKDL
Sequence of Heat shock cognate 71 kDa protein (HSPA8) (P11142 whole entry): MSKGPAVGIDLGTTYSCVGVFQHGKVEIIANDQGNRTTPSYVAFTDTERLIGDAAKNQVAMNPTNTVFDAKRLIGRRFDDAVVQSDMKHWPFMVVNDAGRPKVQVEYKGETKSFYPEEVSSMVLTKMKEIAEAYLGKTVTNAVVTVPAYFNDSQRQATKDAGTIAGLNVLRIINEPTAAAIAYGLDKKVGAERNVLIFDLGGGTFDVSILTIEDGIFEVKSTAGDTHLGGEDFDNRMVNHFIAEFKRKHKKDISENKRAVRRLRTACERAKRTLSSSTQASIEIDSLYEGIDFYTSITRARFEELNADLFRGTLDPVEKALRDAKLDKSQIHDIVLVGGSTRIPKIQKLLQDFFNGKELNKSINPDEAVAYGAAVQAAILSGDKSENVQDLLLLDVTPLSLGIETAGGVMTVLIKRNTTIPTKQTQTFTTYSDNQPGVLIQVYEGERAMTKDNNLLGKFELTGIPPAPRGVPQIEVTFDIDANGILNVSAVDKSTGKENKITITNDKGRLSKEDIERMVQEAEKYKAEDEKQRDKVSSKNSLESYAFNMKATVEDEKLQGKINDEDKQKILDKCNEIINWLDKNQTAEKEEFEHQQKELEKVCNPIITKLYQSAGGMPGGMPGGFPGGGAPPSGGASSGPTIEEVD
Sequence of glyceraldehyde-3-phosphate dehydrogenase (GAPDH) (P04406 whole entry): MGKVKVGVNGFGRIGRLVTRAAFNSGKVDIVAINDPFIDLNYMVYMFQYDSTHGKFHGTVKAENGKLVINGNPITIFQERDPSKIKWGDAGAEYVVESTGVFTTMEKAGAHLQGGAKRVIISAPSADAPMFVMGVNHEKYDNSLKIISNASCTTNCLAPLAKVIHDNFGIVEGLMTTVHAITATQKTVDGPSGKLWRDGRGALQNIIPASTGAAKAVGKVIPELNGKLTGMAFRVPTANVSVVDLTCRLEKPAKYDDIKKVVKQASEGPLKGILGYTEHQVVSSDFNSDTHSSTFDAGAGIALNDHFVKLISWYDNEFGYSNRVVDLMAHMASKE
Sequence of Prohibitin-2 (PHB2) (Q99623 whole entry): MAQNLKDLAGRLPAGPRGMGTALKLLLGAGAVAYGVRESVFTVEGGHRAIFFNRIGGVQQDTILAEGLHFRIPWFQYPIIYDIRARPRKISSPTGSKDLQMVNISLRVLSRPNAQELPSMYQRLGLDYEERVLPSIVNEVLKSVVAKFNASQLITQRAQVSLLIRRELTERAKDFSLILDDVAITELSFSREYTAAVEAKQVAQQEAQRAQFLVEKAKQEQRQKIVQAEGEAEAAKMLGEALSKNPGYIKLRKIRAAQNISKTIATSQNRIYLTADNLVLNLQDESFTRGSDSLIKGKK
Sequence of Prohibitin-2 (PHB2) (P35232 whole entry partner): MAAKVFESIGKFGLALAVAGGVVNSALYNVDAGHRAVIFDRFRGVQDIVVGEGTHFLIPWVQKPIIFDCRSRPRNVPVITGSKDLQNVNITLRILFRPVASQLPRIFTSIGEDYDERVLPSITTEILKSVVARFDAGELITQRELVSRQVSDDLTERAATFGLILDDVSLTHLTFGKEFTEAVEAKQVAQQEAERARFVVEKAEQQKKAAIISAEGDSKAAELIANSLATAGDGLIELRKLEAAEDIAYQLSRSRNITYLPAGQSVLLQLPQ

- Abundance Ratio: (11) / (11 with PU-H71) ([1]; Exp3, ATP5A1): 0.84
- Abundance Ratio: (11) / (DMSO) ([1]; Exp3, ATP5A1): 3.573
- Abundances (Grouped): 11 ([1]; Exp3, ATP5A1): 381.2
- Abundances (Grouped): 11 with PU-H71 ([1]; Exp3, ATP5A1): 453.7
- Abundance Ratio: (11) / (DMSO) [1, 6]: 3.323
- Abundance Ratio: (11) / (11 with PU-H71) [1, 7]: 0.923
- Abundance Ratio: (11) / (11 with PU-H71) ([1]; sheet Exp2, ATP5A1): 0.771
- Abundance Ratio: (11) / (DMSO) ([1]; sheet Exp2, ATP5A1): 3.865
- Abundances (Grouped): 11 ([1]; sheet Exp2, ATP5A1): 390.8
- Abundances (Grouped): 11 with PU-H71 ([1]; sheet Exp2, ATP5A1): 506.9
- Abundance Ratio: (11) / (DMSO) [1, 8]: 3.663
- Abundance Ratio: (11) / (11 with PU-H71) [1, 9]: 0.771
- Abundance Ratio: (11) / (11 with PU-H71) ([2]; Exp3, HSPA8): 1.213
- Abundance Ratio: (11) / (DMSO) ([2]; Exp3, HSPA8): 3.219
- Abundances (Grouped): 11 ([2]; Exp3, HSPA8): 407.2
- Abundances (Grouped): 11 with PU-H71 ([2]; Exp3, HSPA8): 335.6
- Abundance Ratio: (11) / (DMSO) [2, 6]: 3.395
- Abundance Ratio: (11) / (11 with PU-H71) [2, 7]: 1.175
- Abundance Ratio: (11) / (11 with PU-H71) ([2]; sheet Exp2, HSPA8): 1.256
- Abundance Ratio: (11) / (DMSO) ([2]; sheet Exp2, HSPA8): 4.511
- Abundances (Grouped): 11 ([2]; sheet Exp2, HSPA8): 471.4
- Abundances (Grouped): 11 with PU-H71 ([2]; sheet Exp2, HSPA8): 375.4
- Abundance Ratio: (11) / (DMSO) [2, 8]: 3.381
- Abundance Ratio: (11) / (11 with PU-H71) [2, 9]: 1.191
- Abundance Ratio: (11) / (11 with PU-H71) ([3]; Exp3, HSP90AA1): 4.154
- Abundance Ratio: (11) / (DMSO) ([3]; Exp3, HSP90AA1): 13.53
- Abundances (Grouped): 11 ([3]; Exp3, HSP90AA1): 1235.3
- Abundances (Grouped): 11 with PU-H71 ([3]; Exp3, HSP90AA1): 297.4
- Abundance Ratio: (11) / (DMSO) [3, 6]: 12.472
- Abundance Ratio: (11) / (11 with PU-H71) [3, 7]: 3.732
- Abundance Ratio: (11) / (11 with PU-H71) ([3]; sheet Exp2, HSP90AA1): 3.971
- Abundance Ratio: (11) / (DMSO) ([3]; sheet Exp2, HSP90AA1): 11.996
- Abundances (Grouped): 11 ([3]; sheet Exp2, HSP90AA1): 903.3
- Abundances (Grouped): 11 with PU-H71 ([3]; sheet Exp2, HSP90AA1): 227.5
- Abundance Ratio: (11) / (DMSO) [3, 8]: 13.5 and 13.53
- Abundance Ratio: (11) / (11 with PU-H71) [3, 9]: 4.154
- Abundance Ratio: (11) / (DMSO) [4, 6]: 3.283
- Abundance Ratio: (11) / (11 with PU-H71) [4, 7]: 0.769
- Abundance Ratio: (11) / (11 with PU-H71) ([4]; sheet Exp2, LDHB): 0.731
- Abundance Ratio: (11) / (DMSO) ([4]; sheet Exp2, LDHB): 3.172
- Abundances (Grouped): 11 ([4]; sheet Exp2, LDHB): 66.3
- Abundances (Grouped): 11 with PU-H71 ([4]; sheet Exp2, LDHB, with PU-H71): 90.7
- Abundance Ratio: (11) / (DMSO) [4, 8]: 3.227
- Abundance Ratio: (11) / (11 with PU-H71) [4, 9]: 0.75
- Abundance Ratio: (11) / (DMSO) (Prohibitin-2 (PHB2); sheet Exp1): 1.815
- Abundance Ratio: (11) / (11 with PU-H71) (Prohibitin-2 (PHB2); sheet Exp1): 0.795
- Abundance Ratio: (11) / (DMSO) (Prohibitin-2 (PHB2); sheet Merged): 1.815
- Abundance Ratio: (11) / (11 with PU-H71) (Prohibitin-2 (PHB2); sheet Merged): 0.795
- Abundance Ratio: (11) / (11 with PU-H71) ([5]; Exp3, GAPDH): 0.73
- Abundance Ratio: (11) / (DMSO) ([5]; Exp3, GAPDH): 1.944
- Abundances (Grouped): 11 ([5]; Exp3, GAPDH): 248.2
- Abundances (Grouped): 11 with PU-H71 ([5]; Exp3, GAPDH): 340
- Abundance Ratio: (11) / (DMSO) [5, 6]: 2.11
- Abundance Ratio: (11) / (11 with PU-H71) [5, 7]: 0.674
- Abundance Ratio: (11) / (11 with PU-H71) ([5]; sheet Exp2, GAPDH): 0.789
- Abundance Ratio: (11) / (DMSO) ([5]; sheet Exp2, GAPDH): 3.189
- Abundances (Grouped): 11 ([5]; sheet Exp2, GAPDH): 133
- Abundances (Grouped): 11 with PU-H71 ([5]; sheet Exp2, GAPDH): 168.6
- Abundance Ratio: (11) / (DMSO) [5, 8]: 2.267
- Abundance Ratio: (11) / (11 with PU-H71) [5, 9]: 0.732
Structure (SMILES): CC(=O)Oc1ccc2c(c1)Oc1cc(OC(C)=O)ccc1C21OC(=O)c2cc(C(=O)NCCOCCOCCNC(=O)CCCC(=O)N(CC#N)S(=O)(=O)c3ccc(C(=O)NCCCn4c(Sc5cc6c(cc5I)OCO6)nc5c(N)ncnc54)cc3)ccc21 [compound 11]
